Test results published in patent publication US20170014430A1, “Cycloartenol-Containing Composition” (KAO CORPORATION, priority 2014, published 2017).
Marks after values point to notes of the source that are not given here.

Columns and labels:
[1] = in vivo; Patent Literatures 9 to 11; cited from earlier work
[2] = molecular target: T1, lipase from porcine pancreas (Sus scrofa, UniProt P00591); test: Inhibitory action against lipase: amount of free fatty acid produced from bile acid micelles (artificial in vivo system); assay type: biochemical
T1 construct: lipase from porcine pancreas [SIGMA]; purchased SIGMA; host or cells: porcine pancreas (tissue-derived preparation)
T1 sequence (P00591 1-450): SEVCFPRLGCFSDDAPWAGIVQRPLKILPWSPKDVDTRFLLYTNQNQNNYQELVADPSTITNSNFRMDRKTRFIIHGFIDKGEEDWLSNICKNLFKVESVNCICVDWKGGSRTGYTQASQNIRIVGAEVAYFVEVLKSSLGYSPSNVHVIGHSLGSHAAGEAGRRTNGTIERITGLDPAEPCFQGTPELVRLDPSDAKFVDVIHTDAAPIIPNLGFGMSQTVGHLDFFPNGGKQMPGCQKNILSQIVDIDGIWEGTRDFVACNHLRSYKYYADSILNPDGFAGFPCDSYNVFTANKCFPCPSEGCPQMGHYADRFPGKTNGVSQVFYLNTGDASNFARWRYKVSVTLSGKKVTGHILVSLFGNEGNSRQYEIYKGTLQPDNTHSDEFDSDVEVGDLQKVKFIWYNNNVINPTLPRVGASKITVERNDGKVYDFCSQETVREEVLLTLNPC
Protocol: In this example, an emulsification liquid containing bile acid micelles was produced as an artificial in vivo system. In the artificial in vivo system, the inhibitory action of the test samples against the lipolytic activity by lipase in vivo was evaluated by measuring the amount of free fatty acid collected from the bile acid micelles after application of lipase in the presence of the test samples.
10 g of olive oil (Wako Pure Chemical Industries, Ltd.) was added to each test sample (30 mg in terms of CA amount), which was heated at 70° C. in an oven for 20 minutes to be dissolved.
0.92 g of olive oil in which each test sample was dissolved, 40 mg of egg yolk lecithin (Wako Pure Chemical Industries, Ltd.), and 24 mL of the bile acid solution were added to a 50-mL tube, followed by cooling with ice, and thereafter emulsification was performed thereon using an ultrasonic homogenizer. […] Thereafter, 2.5 mL of a 0.1% lipase solution (0.1N TRIS-HCl buffer solution of lipase from porcine pancreas [SIGMA]) was added thereto, which was mixed with stirring using a vortex mixer for 10 seconds, followed by incubation in a water bath at 37° C. for 10 minutes. The tube was moved into an oil bath at 70° C., was subjected to enzyme inactivation for 15 minutes, and thereafter was mixed again with stirring using a vortex mixer to collect 100 μL.
The amount of free fatty acid in the reaction solution was determined using NEFA-C Test wako. That is, 800 μL of a coloring reagent A was added to 100 μL of the sample, which was stirred using a vortex mixer, and thereafter was heated at 37° C. for 10 minutes. After cooling, 1600 μL of a coloring reagent B was added thereto, followed by stirring, and was heated again at 37° C. for 10 minutes. This was subjected to an ultraviolet/visible spectrophotometer to measure an absorbance at 550 nm. Thus, the amount of free fatty acid produced was obtained. Each reaction solution was measured 3 times or 4 times by the same operation.

blood GIP = test: Inhibitory action against blood GIP increase, intragastric administration test of starch paste sample; assay type: in vivo, C57BL/6J mice; conditions: Table 6, AUC for 120 minutes, relative value with control administration group taken as 100, 175 μM in terms of CA
Protocol: For experiments, C57BL/6J mice (male, 8 week-old, manufactured by CLEA Japan, Inc.) grouped so that each group has the same body weight (N=16/group) were used and were subjected to the tests.
Starch (waxy corn, Amioca) was dissolved in distilled water in an amount 4 times the amount of the starch and gelatinized (pregelatinized) by autoclaving (at 121° C. under a pressure of 2 atmospheres for 20 minutes). Each of the test samples (Sample Nos. 2 to 4 and 8) shown in Table 4 was emulsified in triolein containing egg yolk lecithin and albumin to obtain an emulsified oil. […]
The starch paste sample containing the test sample was intragastrically administered to a mouse fasted for 20 hours, and part of the blood was collected from the orbital venous plexus over time (before the administration, and at 10, 30, 60, and 120 minutes after the administration). […] The collected blood was subjected to centrifugation, and thereafter the blood plasma was prepared and measured using GIP ELISA kit (EMD Millipore Corporation). The blood GIP amount of each sample after the administration was calculated by measuring the maximum value (Cmax) and the area under the concentration curve (AUC) for 120 minutes. […]

## CC(C)=CCC[C@@H](C)[C@H]1CC[C@@]2(C)[C@@H]3CC[C@H]4C(C)(C)[C@@H](O)CC[C@@]45C[C@@]35CC[C@]12C [Purified product of cycloartenol, cycloartenol]
[1]
  inhibitory activity against GIP increase: exerts inhibitory activities
  inhibitory activity against postprandial blood glucose increase: exerts inhibitory activities
[2]; Example 1
  amount of free fatty acid produced compared to the control / lipase inhibitory activity (in words): reduced
[2]; Example 1, test sample 30 mg in terms of CA in 10 g olive oil, lipase 37° C. 10 minutes, NEFA-C Test wako, absorbance 550 nm, control (olive oil alone) 0.376
  Amount of free fatty acid produced, Average: 0.276
[2]; Example 2
  amount of free fatty acid produced compared with the control / lipase inhibitory activity (in words): reduced
[2]; Example 2, same manner as Example 1, control (olive oil alone) 0.296
  Amount of free fatty acid produced, Average: 0.238
Blood GIP
  GIP (AUC): 81 *
